{
  "source": "ChEMBL document CHEMBL3877318",
  "about": "“Cystatin C peptidomimetic derivative with antimicrobial properties as a potential compound against wound infections” (Bioorg Med Chem, 2017)",
  "test_system": "PBMC",
  "test": "Inhibition of LPS-stimulated TNF-alpha release in human PBMC at 600 ng/ml after 20 hrs by ELISPOT test",
  "type": "functional, cell-based",
  "note": "Activity calls are given as the source filed them. The calls are words filed in the database; no cut-off is given here.",
  "data": [
    {"smiles": "C[C@@H]1C[C@H]2[C@@H]3CCC4=CC(=O)C=C[C@]4(C)[C@@]3(F)[C@@H](O)C[C@]2(C)[C@@]1(O)C(=O)CO", "values": [
      {"measurement": "inhibition", "result": "Active"}
    ]}
  ]
}
